Structures are written as SMILES.

What is called inhibition is the share of the control response that was lost under treatment.

The target in test [1] is T1, Serine/threonine-protein kinase DCLK2 (Homo sapiens) (UniProt Q8N568).
T1 sequence (whole entry): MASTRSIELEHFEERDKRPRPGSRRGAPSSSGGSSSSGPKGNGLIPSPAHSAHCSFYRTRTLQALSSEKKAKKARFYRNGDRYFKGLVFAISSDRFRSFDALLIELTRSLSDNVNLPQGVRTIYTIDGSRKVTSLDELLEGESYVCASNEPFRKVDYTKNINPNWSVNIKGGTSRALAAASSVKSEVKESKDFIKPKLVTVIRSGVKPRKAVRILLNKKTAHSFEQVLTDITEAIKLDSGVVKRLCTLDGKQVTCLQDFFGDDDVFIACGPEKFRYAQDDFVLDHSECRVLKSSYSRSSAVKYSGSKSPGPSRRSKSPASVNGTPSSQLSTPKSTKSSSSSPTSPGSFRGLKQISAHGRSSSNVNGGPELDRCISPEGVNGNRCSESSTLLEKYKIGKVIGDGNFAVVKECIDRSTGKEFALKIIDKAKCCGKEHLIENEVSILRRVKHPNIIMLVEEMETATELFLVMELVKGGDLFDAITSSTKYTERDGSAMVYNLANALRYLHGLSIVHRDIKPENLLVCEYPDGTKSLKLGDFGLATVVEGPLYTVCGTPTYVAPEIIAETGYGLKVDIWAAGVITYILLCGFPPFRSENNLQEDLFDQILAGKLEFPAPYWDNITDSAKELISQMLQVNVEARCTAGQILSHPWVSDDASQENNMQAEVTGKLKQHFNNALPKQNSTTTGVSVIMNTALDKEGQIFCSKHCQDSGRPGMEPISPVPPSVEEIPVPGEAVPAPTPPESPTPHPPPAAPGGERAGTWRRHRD
Kind of test: Inhibition of human full length DCAMKL2 expressed in baculovirus assessed as substrate phosphorylation using fluorescence-labelled peptides as substrate at 0.1 uM after 90 mins by microfluidic peptide phosphorylation assay.

Test [2] concerns the target T2, Serine/threonine-protein kinase Sgk3 (Homo sapiens) (UniProt Q96BR1).
T2 sequence (whole entry): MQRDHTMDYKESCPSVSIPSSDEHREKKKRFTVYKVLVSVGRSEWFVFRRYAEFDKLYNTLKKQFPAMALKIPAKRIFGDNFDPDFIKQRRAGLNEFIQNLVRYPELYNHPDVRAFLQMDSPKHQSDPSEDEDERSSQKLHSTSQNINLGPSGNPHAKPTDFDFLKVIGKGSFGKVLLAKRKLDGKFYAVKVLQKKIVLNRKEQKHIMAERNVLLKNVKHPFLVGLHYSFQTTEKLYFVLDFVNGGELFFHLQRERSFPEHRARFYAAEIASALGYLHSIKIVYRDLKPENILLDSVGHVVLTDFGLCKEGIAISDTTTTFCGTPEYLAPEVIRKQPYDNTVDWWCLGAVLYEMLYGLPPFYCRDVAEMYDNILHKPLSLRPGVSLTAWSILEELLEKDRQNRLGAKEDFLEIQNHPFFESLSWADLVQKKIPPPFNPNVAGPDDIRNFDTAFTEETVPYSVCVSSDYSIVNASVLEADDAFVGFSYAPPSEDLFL
The settings on record: 0.1 uM.
Description: Inhibition of human full length SGK3 expressed in baculovirus assessed as substrate phosphorylation using fluorescence-labelled peptides as substrate at 0.1 uM after 90 mins by microfluidic peptide phosphorylation assay

Test [3] addresses T3, Inhibitor of nuclear factor kappa-B kinase subunit beta (Homo sapiens) (UniProt O14920).
T3 sequence (whole entry): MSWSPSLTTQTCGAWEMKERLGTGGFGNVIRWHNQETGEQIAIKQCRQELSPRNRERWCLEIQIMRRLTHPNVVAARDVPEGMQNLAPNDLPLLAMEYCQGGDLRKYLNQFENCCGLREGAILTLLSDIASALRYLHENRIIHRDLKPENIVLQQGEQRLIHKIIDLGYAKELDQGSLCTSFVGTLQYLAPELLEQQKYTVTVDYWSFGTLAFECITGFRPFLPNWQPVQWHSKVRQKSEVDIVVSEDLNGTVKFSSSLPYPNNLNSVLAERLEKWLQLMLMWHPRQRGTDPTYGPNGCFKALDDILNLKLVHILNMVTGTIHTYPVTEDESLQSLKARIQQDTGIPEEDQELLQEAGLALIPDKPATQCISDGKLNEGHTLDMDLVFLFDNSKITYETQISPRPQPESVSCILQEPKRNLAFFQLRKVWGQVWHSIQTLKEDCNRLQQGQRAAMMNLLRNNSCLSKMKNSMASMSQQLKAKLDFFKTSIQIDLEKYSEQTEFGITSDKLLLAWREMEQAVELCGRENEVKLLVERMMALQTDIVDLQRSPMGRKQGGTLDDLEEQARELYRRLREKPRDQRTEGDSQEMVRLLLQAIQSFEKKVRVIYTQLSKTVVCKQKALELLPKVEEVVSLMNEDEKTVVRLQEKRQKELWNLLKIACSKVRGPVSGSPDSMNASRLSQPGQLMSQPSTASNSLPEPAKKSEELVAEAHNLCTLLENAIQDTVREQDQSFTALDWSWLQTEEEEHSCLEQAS
Kind of test: Inhibition of human full length IKK beta expressed in baculovirus assessed as substrate phosphorylation using fluorescence-labelled peptides as substrate at 420 uM after 90 mins by microfluidic peptide phosphorylation assay.

Test [4] addresses Protein kinase C alpha type (Homo sapiens) (UniProt P17252). Put plainly: Inhibition of human truncated PKC alpha expressed in baculovirus assessed as substrate phosphorylation using fluorescence-labelled peptides as substrate at 420 uM after 90 mins by microfluidic peptide phosphorylation assay.
The target in test [5] is T2, Serine/threonine-protein kinase Sgk3 (Homo sapiens). Put plainly: Inhibition of human full length SGK3 expressed in baculovirus assessed as substrate phosphorylation using fluorescence-labelled peptides as substrate at 95 uM after 90 mins by microfluidic peptide phosphorylation assay.
For test [6], the target named is Fibroblast growth factor receptor 3 (Homo sapiens) (UniProt P22607). Put plainly: Inhibition of human FGFR3 catalytic domain expressed in baculovirus assessed as substrate phosphorylation using fluorescence-labelled peptides as substrate at 9 uM after 90 mins by microfluidic peptide phosphorylation assay.
Sequence of Fibroblast growth factor receptor 3 (Homo sapiens) (P22607 23-806 limits assumed): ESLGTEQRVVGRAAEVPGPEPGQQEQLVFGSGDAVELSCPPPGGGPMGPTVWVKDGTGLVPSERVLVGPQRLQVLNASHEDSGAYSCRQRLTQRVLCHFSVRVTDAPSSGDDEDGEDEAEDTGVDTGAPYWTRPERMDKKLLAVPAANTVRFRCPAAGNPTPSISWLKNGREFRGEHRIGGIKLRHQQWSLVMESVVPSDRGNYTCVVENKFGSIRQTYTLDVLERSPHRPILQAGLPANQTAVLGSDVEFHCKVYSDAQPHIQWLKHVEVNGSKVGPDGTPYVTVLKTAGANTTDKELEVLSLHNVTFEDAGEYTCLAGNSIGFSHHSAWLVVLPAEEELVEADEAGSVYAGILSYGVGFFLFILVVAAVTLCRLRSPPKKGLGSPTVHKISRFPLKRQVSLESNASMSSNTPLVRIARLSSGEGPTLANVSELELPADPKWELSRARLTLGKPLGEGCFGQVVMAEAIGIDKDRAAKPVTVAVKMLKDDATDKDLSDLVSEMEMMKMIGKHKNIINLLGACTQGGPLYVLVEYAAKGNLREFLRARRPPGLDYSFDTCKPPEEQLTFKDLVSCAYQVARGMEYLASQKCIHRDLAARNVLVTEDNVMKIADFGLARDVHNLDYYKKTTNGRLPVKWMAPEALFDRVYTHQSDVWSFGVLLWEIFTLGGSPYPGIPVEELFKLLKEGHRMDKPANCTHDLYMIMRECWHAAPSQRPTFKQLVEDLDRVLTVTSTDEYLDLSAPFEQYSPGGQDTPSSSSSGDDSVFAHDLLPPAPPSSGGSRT
Test [7] addresses Protein kinase C theta type (Homo sapiens) (UniProt Q04759). Kind of test: Inhibition of human truncated PKC theta expressed in baculovirus assessed as substrate phosphorylation using fluorescence-labelled peptides as substrate at 2 uM after 90 mins by microfluidic peptide phosphorylation assay.

Sequence of Protein kinase C theta type (Homo sapiens) (Q04759 whole entry, looked up, the tested form may be a part): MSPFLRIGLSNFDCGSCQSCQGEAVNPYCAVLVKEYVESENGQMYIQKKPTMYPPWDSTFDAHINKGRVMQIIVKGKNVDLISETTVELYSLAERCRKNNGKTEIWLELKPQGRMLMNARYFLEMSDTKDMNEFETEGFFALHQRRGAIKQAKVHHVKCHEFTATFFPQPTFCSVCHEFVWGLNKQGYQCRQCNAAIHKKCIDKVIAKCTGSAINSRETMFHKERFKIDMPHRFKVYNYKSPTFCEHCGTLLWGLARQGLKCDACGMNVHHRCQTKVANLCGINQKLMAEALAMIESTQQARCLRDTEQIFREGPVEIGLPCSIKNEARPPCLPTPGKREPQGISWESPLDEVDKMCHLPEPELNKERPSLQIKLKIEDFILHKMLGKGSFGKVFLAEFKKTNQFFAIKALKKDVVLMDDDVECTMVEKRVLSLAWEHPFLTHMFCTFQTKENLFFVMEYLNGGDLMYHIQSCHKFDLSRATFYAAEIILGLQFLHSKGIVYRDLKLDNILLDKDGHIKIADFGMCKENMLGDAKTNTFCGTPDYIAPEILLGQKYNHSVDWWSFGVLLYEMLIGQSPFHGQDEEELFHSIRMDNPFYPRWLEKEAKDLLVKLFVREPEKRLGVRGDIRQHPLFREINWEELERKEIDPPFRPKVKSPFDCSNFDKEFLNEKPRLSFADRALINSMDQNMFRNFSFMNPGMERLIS

For the compound `C[C@H](CN(C)C)Oc1nc(Nc2cc3cccc(Cl)c3cn2)cnc1C#N`, the inhibition in test [1] turned out to be 6%; in test [2] it was 0%.
For `c1nc(N2CCOCC2)c2nc[nH]c2n1`, the inhibition turned out to be 87% in test [3] and 64.5% in test [4].
For the compound `NCCc1ccc(-c2ncnc3[nH]cnc23)cc1`, the inhibition in test [5] worked out at 41.5%.
With `NCC1CN(c2ncnc3[nH]c4cnccc4c23)CCO1` (configuration not stated), the inhibition in test [6] stood at 43.5%.
As for `NC1CCN(c2ncnc3[nH]ccc23)CC1`, the inhibition in test [7] was 13%.

Values taken from ChEMBL document CHEMBL3132769, “Fragment growing to retain or alter the selectivity of anchored kinase hinge-binding fragments” (Medchemcomm, 2014).
